Legend:
Type in all cases: physicochemical
[1] = Critical water activity: seeded suspension equilibration of Hydrate vs anhydrous Forms I and II in 2-PrOH/water and THF/water; conditions: for Result (XRPD): analyzed wet
Procedure: The critical water activity between the Hydrate and anhydrous Forms I and II was attempted to be determined at room temperature in 2-PrOH/water and THF/water mixtures. […] After two additional days of stirring at RT, the solid was separated from the liquid by centrifuge filtering.
In order to clarify the root cause of the surprising results regarding the critical water activities, three further experiments were performed. The slurries at water activities of 0.5 and 0.7 were repeated using freshly prepared solvent mixtures and the suspension equilibration at a water activity of 0.7 was also performed in 2-PrOH/water mixture. The formation of thick suspension in 2-PrOH/water mixtures was experienced again; the initially obtained thick suspension turned into a well-stirred slurry upon one day of stirring. Then it was seeded with the three forms and the solid was isolated after additional two days of stirring.

[2] = TG-FTIR thermogram, beginning of decomposition; conditions: N2 atmosphere; 10° C./min, 25 to 300° C.
Procedure: FT-Raman Spectroscopy: Bruker Multi-RAM with OPUS 6.5 software; Nd:YAG 1064-nm excitation, Ge detector, 3500-50 cm-1 range; typical measurement conditions: 300 mW nominal laser power, 64 scans, 2 cm-1 resolution; samples pressed into the cavity of aluminum sample holders TG-FTIR: Netzsch Thermo-Microbalance TG 209 with Bruker FT-IR Spectrometer Vector 22; aluminum crucible (with microhole); N2 atmosphere; 10° C./min heating rate, from 25 to 300° C.

[3] = Solvate formation in suspension crystallization at RT
Procedure: (§1) 1) About 100 mg of 5-fluoro-4-imino-3-methyl-1-tosyl-3,4-dihydropyrimidin-2(1H)-one was suspended in 1.0 ml of 2-PrOH previously dried over 4 Å molecular sieves and the suspension was stirred for 11 d at RT and filtered through a 0.2-μm PTFE centrifuge filter and analyzed without drying, or dried in dry N2 stream at RT for 1 h.
as §1, with “2)” for “1)”, “tert-butyl methyl ether (TBME)” for “2-PrOH”, “RT,” for “RT and”, “drying.” for “drying, or dried in dry N2 stream at RT for 1 h.”
3) About 100 mg of 5-fluoro-4-imino-3-methyl-1-tosyl-3,4-dihydropyrimidin-2(1H)-one was suspended in 1.0 ml of toluene previously dried over 4 Å molecular sieves and the suspension was stirred for 11 d at RT, filtered through a 0.2-μm PTFE centrifuge filter and analyzed without drying.
Form II was prepared by suspension crystallization. About 120 mg of 5-fluoro-4-imino-3-methyl-1-tosyl-3,4-dihydropyrimidin-2(1H)-one was suspended in 0.8 ml of methyl ethyl ketone (MEK) previously dried over 4 Å molecular sieves and the suspension was stirred for 11 d at room temperature and filtered through a 0.2-μm PTFE centrifuge filter. The solid was allowed to dry under ambient conditions for 1 d.

[4] = Relative thermodynamic stability of Forms I and II: competitive slurry experiments; conditions: for Result (XRPD): seeded with Form I + Form II after 4 h, analyzed wet
Procedure: (§2) The relative thermodynamic stability of the polymorphs was determined by slurry experiments at RT and 5° C. […] The stability was further investigated at 5° C. and in addition, another experiment was performed at MEK at RT. MEK was chosen as suspending media because that was the only solvent where Form II was formed when slurrying the starting material. […] The experiment at 5° C. in TBME was actually carried out only as a control.

[5] = Solubility in suspending medium; conditions: in MEK
Procedure: as §2

[6] = Solid-state hygroscopicity / stability against hydration
[7] = Dehydration of the Hydrate, DSC in an open pan
Procedure: DSC: TA Instruments DSC Q2000; hermetically closed gold crucible; N2 atmosphere; 10° C./min heating rate, from 20 to 190° C. The melting point is understood as the peak onset.
1) Measuring by DSC in an open pan, the water of crystallization evaporates in the temperature range of 20-100° C. Then a sharp endothermic event due to melting follows in the thermogram at 159° C. (FIG. 10).

Cc1ccc(S(=O)(=O)n2cc(F)c(=N)n(C)c2=O)cc1 [Form II, 5-fluoro-4-imino-3-methyl-1-tosyl-3,4-dihydropyrimidin-2(1H)-one]
relative thermodynamic stability among the three forms suspended ([1]; water activity of 0.7, RT (Table 1), patent assumes this finding untrue): more stable
decomposition beginning at a temperature (TG-FTIR) [2]: greater than 210 °C

Cc1ccc(S(=O)(=O)n2cc(F)c(=N)n(C)c2=O)cc1 [PP539-P1, 5-fluoro-4-imino-3-methyl-1-tosyl-3,4-dihydropyrimidin-2(1H)-one]
Result (XRPD) ([1]; 2PrOH/water = 89.6/10.4, aw 0.7, seeded with HH + Form I + Form II after 1 d): HH″ + traces
Result (XRPD) ([1]; 2PrOH/water = 94.7/5.3, aw 0.5, RT, seeded with HH + Form I + Form II after 3 d): HH′
Result (XRPD) ([1]; 2PrOH/water = 97.5/2.5, aw 0.3, RT, seeded with HH + Form I + Form II after 3 d): Form I
Result (XRPD) ([1]; 2PrOH/water = 99.3/0.7, aw 0.1, RT, seeded with HH + Form I + Form II after 3 d, 2 d more stirring): Form I
Result (XRPD) ([1]; THF/water = 79.7/21.3, aw 0.9, RT, seeded with HH + Form I + Form II after 3 d): HH″
Result (XRPD) ([1]; THF/water = 96.4/3.6, aw 0.7, RT, seeded with HH + Form I + Form II after 3 d): Form II
Result (XRPD) ([1]; repeat, fresh solvent, 2PrOH/water = 94.7/5.3, aw 0.5, seeded with HH + Form I + Form II after 1 d): HH″ + some
Result (XRPD) ([1]; repeat, fresh solvent, THF/water = 96.4/3.6, aw 0.7, seeded with HH + Form I + Form II after 1 d): HH′
formation of thermodynamically stable solvates ([3]; with MEK at RT, Form II formed): does not form thermodynamically stable solvates
formation of thermodynamically stable solvates ([3]; with toluene, 2-PrOH and TBME at RT, Form I formed): does not form thermodynamically stable solvates
Result (XRPD) ([4]; MEK (dry), 5° C.): Form S9 + Form I
Result (XRPD) ([4]; MEK (dry), 22° C.): Form I + Form II
Result (XRPD) ([4]; TBME (dry), 5° C.): Form I
solubility [5]: rather high

Cc1ccc(S(=O)(=O)n2cc(F)c(=N)n(C)c2=O)cc1 [Form S1, 5-fluoro-4-imino-3-methyl-1-tosyl-3,4-dihydropyrimidin-2(1H)-one]
decomposition beginning at a temperature (TG-FTIR) [2]: greater than 200 °C

Cc1ccc(S(=O)(=O)n2cc(F)c(=N)n(C)c2=O)cc1 [Form I, 5-fluoro-4-imino-3-methyl-1-tosyl-3,4-dihydropyrimidin-2(1H)-one]
relative thermodynamic stability among the three forms suspended ([1]; water activity of 0.3 and below, RT): thermodynamically most stable
thermodynamic stability vs the hydrate form ([1]; water activity of 0.3 or less at room temperature): thermodynamically more stable than the hydrate form
relative stability vs Form II in competitive slurry ([4]; TBME at 5° C.): unequivocally more stable than Form II
thermodynamic stability vs polymorph Form II ([4]; at 5° C. and above): thermodynamically more stable than polymorph Form II
relative thermodynamic stability vs Form II ([4]; water activities of 0.1 and 0.3, RT): more stable
hygroscopicity [6]: non-hygroscopic
kinetic stability against hydration ([6]; at higher relative humidity): high kinetic stability against hydration
decomposition beginning at a temperature (TG-FTIR) [2]: greater than 210 °C

Cc1ccc(S(=O)(=O)n2cc(F)c(=N)n(C)c2=O)cc1 [Hydrate, 5-fluoro-4-imino-3-methyl-1-tosyl-3,4-dihydropyrimidin-2(1H)-one]
relative thermodynamic stability among the three forms suspended ([1]; water activity of 0.5 and 0.9, RT (Table 1)): more stable
relative stability vs Form I and Form II (ultimate finding) ([1]; water activity of 0.5 and higher at RT): more stable than the two anhydrous forms
temperature range in which the water of crystallization evaporates [7]: 20-100 °C
form resulting from dehydration ([7]; melting at 159° C. coincides with Form I): anhydrous Form I
decomposition beginning at a temperature (TG-FTIR) [2]: greater than 190 °C

Cc1ccc(S(=O)(=O)n2cc(F)c(=N)n(C)c2=O)cc1 [Form S5, 5-fluoro-4-imino-3-methyl-1-tosyl-3,4-dihydropyrimidin-2(1H)-one]
decomposition beginning at a temperature (TG-FTIR) [2]: greater than 180 °C

Cc1ccc(S(=O)(=O)n2cc(F)c(=N)n(C)c2=O)cc1 [Form S8, 5-fluoro-4-imino-3-methyl-1-tosyl-3,4-dihydropyrimidin-2(1H)-one]
decomposition beginning at a temperature (TG-FTIR) [2]: greater than 180 °C

From patent US11632954B2, “Polymorphs of 5-fluoro-4-imino-3-methyl-1 -tosyl-3,4-dihydropyrimidin-2-one” (ADAMA MAKHTESHIM LTD., priority 2017, dated 2023)
